# Results reported in patent US12116358B2, “Substituted indoles and methods of use thereof” (EPIZYME, INC., priority 2018, dated 2024).
# Where two headings read alike, the source gives them in different places.
# Key:
# [1] = molecular target: T1, SETD2(1434-1711) (Homo sapiens, UniProt Q9BYW2); experiment: SETD2 (1434-1711) assay; assay type: biochemical; conditions: read-out: SETD2 (1434-1711)
# T1 construct: SETD2 (1434-1711) Assay; catalogue N/A
# T1 sequence (Q9BYW2 1434-1711): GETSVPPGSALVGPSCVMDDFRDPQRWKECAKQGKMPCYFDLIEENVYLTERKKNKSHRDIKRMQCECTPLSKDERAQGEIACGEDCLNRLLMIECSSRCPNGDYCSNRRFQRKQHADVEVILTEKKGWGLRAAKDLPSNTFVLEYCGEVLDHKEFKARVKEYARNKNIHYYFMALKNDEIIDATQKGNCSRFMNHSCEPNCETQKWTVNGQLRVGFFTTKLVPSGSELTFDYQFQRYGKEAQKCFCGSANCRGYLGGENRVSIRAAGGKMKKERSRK
# [2] = system: H3K36me3 in A549 cells; experiment: In-Cell Western (ICW) assay of SETD2 inhibitors (A549 assay); assay type: cell-based, human; conditions: A549 cells, read-out: SETD2 A549
# Procedure, shortened: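 H3K36me3 In-Cell Western: cells exposed to compound for 3 days at 4,000 cells/well, 37° C. DRAQ5 (1:1000) marked cell number, with 700/800-channel Licor read-out.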
IC50 [1] [µM],IC50 [2] [µM],IC50 ([2]; Homo sapiens) [µM],SMILES
12.1,12.2,,Cc1ccc(F)c2cc(C(=O)NC(C(=O)N(C)C)c3ccccn3)[nH]c12 (centres unmarked) [compound 491]
> 50,,12.5,Cc1cccc(O)c1C(NC(=O)c1cc2cccc(C)c2[nH]1)C1CC1 (centres unmarked) [compound 492]
> 50,,13.1,Cc1cncnc1C(NC(=O)c1cc2cccc(C)c2[nH]1)C1CC1 (centres unmarked) [compound 493]
6,13.2,,Cc1cccnc1C(CCCC(=O)N1CCOCC1)NC(=O)c1cc2cccc(C)c2[nH]1 (centres unmarked) [compound 494]
1.8,13.3,,Cc1cccc2cc(C(=O)Nc3ccc4ncc(CN(C)C)n4c3C)[nH]c12 [compound 495]
0.4,13.4,,Cc1cc(C(=O)N[C@H]2CC[C@H](N)CC2)cnc1C(NC(=O)c1cc2cccc(C)c2[nH]1)C1CC1 (some centres unmarked) [compound 496]
9.4,13.8,,Cc1ccc(F)c2cc(C(=O)NC3CCCc4cccnc43)[nH]c12 (centres unmarked) [compound 498]
9.1,13.9,,CC(=O)N1CCN(c2ccccc2CNC(=O)c2cc3cccc(C)c3[nH]2)CC1 [compound 499]
3,14.5,,Cc1cccnc1C(CC1CC1)NC(=O)c1cc2cccc(C)c2[nH]1 (centres unmarked) [compound 500]
0.4,14.6,,Cc1ccc(F)c2cc(C(=O)Nc3cccc(-c4cnc(N)[nH]4)c3)[nH]c12 [compound 501]
0.5,14.7,,Cc1ccc(F)c2cc(C(=O)Nc3cccc(-c4cc(N)on4)c3)[nH]c12 [compound 502]
9.7,14.8,,Cc1ccc(F)c2cc(C(=O)NC(C(N)=O)c3ccccn3)[nH]c12 (centres unmarked) [compound 503]
3.8,14.9,,Cc1cccc2cc(C(=O)N[C@H]3CC[C@H](C)CC3)[nH]c12 [compound 504]

# The remaining lines, values behind:
SMILES,IC50 [1] [µM],IC50 [2] [µM],IC50 ([2]; Homo sapiens) [µM]
Cc1cccc2cc(C(=O)Nc3ccc4nc(NC5CCNCC5)ncc4c3)[nH]c12 [compound 473],0.2,8.8,
Cc1cccnc1C(NC(=O)c1cc2cccc(C)c2[nH]1)C(C)C (centres unmarked) [compound 474],4.2,,8.9
Cc1ccc(N2CCN(S(=O)(=O)CCN)CC2)cc1NC(=O)c1cc2cccc(C)c2[nH]1 [compound 476],0.8,,9.1
Cc1cc(CN2CCN(C)CC2)cnc1C(NC(=O)c1cc2cccc(C)c2[nH]1)C1CC1 (centres unmarked) [compound 477],2.1,,9.3
Cc1cccc2cc(C(=O)Nc3cccc(CN4CCOCC4)c3)[nH]c12 [compound 478],4.1,,9.4
Cc1cccnc1C(C)NC(=O)c1cc2cccc(C)c2[nH]1 (centres unmarked) [compound 480],7,,9.5
Cc1cc2nccn2nc1C(NC(=O)c1cc2c(F)ccc(C)c2[nH]1)C1CC1 (centres unmarked) [compound 481],1.9,9.7,
Cc1cccc2cc(C(=O)NC3C(=O)NCCc4ccccc43)[nH]c12 (centres unmarked) [compound 482],2.2,10.2,
Cc1cccc2cc(C(=O)NCC(C)c3ccccc3N3CCOCC3)[nH]c12 (centres unmarked) [compound 483],4.1,10.3,
Cc1cccc2cc(C(=O)Nc3cnc4nccn4c3)[nH]c12 [compound 484],7.6,10.6,
CCN(CC)Cc1cccc(NC(=O)c2cc3cccc(C)c3[nH]2)c1 [compound 486],1.8,,10.8
Cc1cccc2cc(C(=O)Nc3ccc4ccc(CN5CCOCC5)cc4c3)[nH]c12 [compound 487],1.6,11,
Cc1cccc2cc(C(=O)Nc3cccc(CN4CCN(C)CC4)c3)[nH]c12 [compound 488],2.5,11.8,
Cc1cccnc1C(CN1CCOCC1)NC(=O)c1cc2cccc(C)c2[nH]1 (centres unmarked) [compound 489],7.9,,11.8
Cc1ccc(N2CCOCC2)cc1NC(=O)c1cc2cccc(C)c2[nH]1 [compound 490],6.5,12.1,
